The values below come from paper PMC6774072, “Azologization and repurposing of a hetero-stilbene-based kinase inhibitor: towards the design of photoswitchable sirtuin inhibitors” (Beilstein Journal of Organic Chemistry, 2019).

What is called inhibition is the share of the control response that was lost under treatment. Low values mean little suppression, high ones strong suppression. By IC50 is commonly meant the point on the concentration scale where inhibition reaches its midpoint. Usually melting point stands for the temperature of the solid-liquid transition.

The target of series [1] is T1, Sirt1 (Homo sapiens, UniProt Q96EB6).
T1 construct: Expression and purification of Sirt1_133-747; made in house
T1 sequence (Q96EB6 133-747): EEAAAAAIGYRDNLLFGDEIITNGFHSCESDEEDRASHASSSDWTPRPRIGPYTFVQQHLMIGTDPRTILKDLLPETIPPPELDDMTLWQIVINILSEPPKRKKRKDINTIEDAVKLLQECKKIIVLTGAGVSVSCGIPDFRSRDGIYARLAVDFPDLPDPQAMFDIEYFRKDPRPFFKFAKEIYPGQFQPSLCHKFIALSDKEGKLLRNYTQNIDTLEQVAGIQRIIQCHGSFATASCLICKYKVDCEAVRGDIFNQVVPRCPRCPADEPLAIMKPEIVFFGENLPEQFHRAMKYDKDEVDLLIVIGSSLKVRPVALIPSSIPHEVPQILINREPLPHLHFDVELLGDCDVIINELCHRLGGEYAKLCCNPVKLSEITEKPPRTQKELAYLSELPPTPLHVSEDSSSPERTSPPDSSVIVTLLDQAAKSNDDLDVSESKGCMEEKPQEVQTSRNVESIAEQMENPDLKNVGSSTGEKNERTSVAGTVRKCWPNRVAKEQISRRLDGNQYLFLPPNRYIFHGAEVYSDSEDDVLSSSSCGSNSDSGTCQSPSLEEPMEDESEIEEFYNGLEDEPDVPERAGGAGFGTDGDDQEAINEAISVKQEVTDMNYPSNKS
As to the kind of experiment: fluorescence-based deacetylase assay with Z-Lys(acetyl)-AMC (ZMAL) substrate. It counts as biochemical. The settings on record: for Sirt1 inhibition: n.i. = no inhibition detected, tested at 100 µM, 50 µM and 10 µM. On the procedure: (§1) The influence on deacetylase activity of three human sirtuin isoforms (Sirt1–3) was determined in a fluorescence-based assay, using Z-Lys(acetyl)-AMC (ZMAL) as a substrate. Compared to the lead structure 2a, all compounds except 2e–h show increased inhibitory activity against Sirt2 (Table 1). […] Moreover, a slight increase in selectivity for Sirt2 and Sirt3 over Sirt1 could be observed for 2c, 4a and 4b. […] Though not photoswitchable, compounds 4a and 4b were synthesized to test the influence of a rigid conformation around the C=C double bond on sirtuin inhibition. […] A recently developed fluorescence polarization (FP)-based assay enables mapping of ligand binding to this specific binding site. For 2a an interaction with the selectivity pocket was already implied in the same work. Additionally performed docking studies proposed a binding mode in which 2a mimics the nicotinamide residue of NAD^+, whereas aromatic amino acid residues of the selectivity pocket stabilize the dimethylphenol ring. As photoisomerization in stilbenes and azo dyes is accompanied by a perpendicular twist of the phenyl ring towards the former molecular plane, we assumed that this conformational change should provoke a differential binding situation at least for the dimethylphenol residue in 2a. Unfortunately, binding of 2b and c could not be localised in the vicinity of the selectivity pocket of Sirt2, so that the binding pose remains unclear.
(§2) The photoswitchable diazeno compound 11 was subjected to biological evaluation to test the effect of photoisomerization on the inhibitory activity. The enzyme assay mixture containing 11 was exposed to 5 minutes of 365 nm radiation and compared with the results of a non-irradiated measurement. […] Unfortunately, 365 nm radiation turned out to have only minor effects on the IC50 values of 11 (Table 3).
(§3) Cloning, expression and purification of recombinant proteins: Expression and purification of Sirt1_133-747, Sirt2_56−356, and Sirt3_118−395 was carried out as described previously. Identity and purity were verified by SDS-PAGE [65]. Protein concentration was determined by the Bradford assay.
(§4) Bioassay: The inhibitory effect of compounds 2a–h, 4a/b, 8a and 11 on Sirt1–3 was detected via a previously reported fluorescence based assay. The synthetic substrate Z-Lys(acetyl)-AMC (ZMAL) is deacetylated by sirtuins, followed by tryptic digestion and thereby release of […], leading to a fluorescent readout. Inhibition was determined by comparing percentage substrate conversion to a DMSO control after subtraction of the blank fluorescence signal. All compounds were tested at 100 µM, 50 µM and 10 µM, respectively. […] IC50 values were calculated with OriginPro 9.0 G using a non-linear regression to fit the dose response curve. An enzyme-free blank control and a 100% conversion control using AMC instead of ZMAL were measured as well. Inhibition measurements were performed in biological duplicates for all compounds.

Series [2] deals with T2, Sirt2 (Homo sapiens, UniProt Q8IXJ6).
T2 construct: Sirt2_56−356; made in house
T2 sequence (Q8IXJ6 56-356): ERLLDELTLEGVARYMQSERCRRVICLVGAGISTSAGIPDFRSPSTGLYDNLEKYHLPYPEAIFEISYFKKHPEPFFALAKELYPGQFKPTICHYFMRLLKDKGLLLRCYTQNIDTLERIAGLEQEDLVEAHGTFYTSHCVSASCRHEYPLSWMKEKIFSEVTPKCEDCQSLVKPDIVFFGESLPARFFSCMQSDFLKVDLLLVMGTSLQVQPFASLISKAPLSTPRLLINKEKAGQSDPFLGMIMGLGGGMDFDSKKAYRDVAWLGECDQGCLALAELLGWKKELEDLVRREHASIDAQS
The description is as above. It counts as biochemical. The settings on record: for IC50: mean ± SD of duplicate experiments, read-out: Sirt2 inhibition IC50; for inhibition at 10 µM / inhibition at 50 µM: percent inhibition relative to controls. On the procedure: as §1, §2, §3, §4

For series [3], the target named is T3, Sirt3 (Homo sapiens, UniProt Q9NTG7).
T3 construct: Sirt3_118−395; made in house
T3 sequence (Q9NTG7 118-395): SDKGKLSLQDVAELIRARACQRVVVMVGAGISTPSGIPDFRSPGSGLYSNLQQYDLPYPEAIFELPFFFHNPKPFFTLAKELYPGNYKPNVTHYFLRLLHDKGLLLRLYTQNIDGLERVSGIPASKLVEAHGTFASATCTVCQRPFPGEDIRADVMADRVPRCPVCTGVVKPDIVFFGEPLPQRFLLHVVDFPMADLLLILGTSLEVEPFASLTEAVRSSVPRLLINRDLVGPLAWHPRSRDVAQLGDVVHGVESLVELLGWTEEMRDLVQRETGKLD
The description is as above. It is filed as biochemical. The settings on record: for IC50: mean ± SD of duplicate experiments, read-out: Sirt3 inhibition IC50; for inhibition at 50 µM / inhibition at 10 µM: percent inhibition relative to controls; for Sirt3 inhibition: n.i. = no inhibition detected, tested at 100 µM, 50 µM and 10 µM. Here is the method:
as §1, §2, §3, §4

Series [4] can be described thus: E→Z photoisomerization of azastilbenes under 254 nm irradiation, proton NMR analysis. It counts as physicochemical. The settings on record: after 100 minutes of 254 nm irradiation, 10 mM in methanol. Here is the method:
Photochemistry of compounds 2b and 2f was investigated via UV–vis spectroscopy, LC–HRMS and NMR spectroscopy. Compound 2b represents the core structure of the azastilbenes investigated, whereas in 2f the influence of ortho methylation was intended to be examined. For UV–vis spectroscopy 50 µM solutions in 5% DMSO (v/v) in enzyme assay buffer were used, as this reflects the enzyme assay conditions. However, for LC-HRMS and NMR analysis, a higher concentration of 10 mM in methanol was necessary to receive reliable chromatograms and spectra.
LC–HRMS analysis provided deeper insights and clarified the differential behaviour observed in the UV–vis spectra of 2b and 2f after UV irradiation. As anticipated, UV irradiation lead to E→Z isomerization of the C=C double bond in both compounds. […] Unfortunately, the amount of photoisomerization was only moderate, since after 100 minutes of continuous irradiation still substantial amounts of the (E)-isomers were present in the mixtures (Figure 3). Proton NMR analysis implied photostationary states comprising a relative percentage of 45% (Z)-2b and 57% (Z)-2f, respectively after 100 minutes of 254 nm irradiation. The NMR spectra can be found in Supporting Information File 1.
Photochemistry: All photoisomerization experiments were conducted under ruby light of 630 nm. […]

[5] abbreviates: percent inhibition relative to controls.

The structures appear in SMILES notation. Where “and” joins values, the source holds several entries; their conditions need not be identical. Equal entries are not always repeated.

For `Cc1cc(O)cc(C)c1/C=C/c1cncc(C(N)=O)c1` [Compound 2a, reference compound], 50 µM produced 27% inhibition in series [1] (setting [5]). Besides, the IC50 amounted to 24.6 ± 2.8 µM in series [2] and 41.7 ± 2 µM in series [3].

As to `NC(=O)c1cncc(/C=C/c2ccccc2)c1` [Compound 2b, (E)-5-Styrylnicotinamide], in series [4], the “relative percentage of (Z)-isomer in photostationary state” value was 45%. Moreover, in series [1] (setting [5]), the inhibition at 10 µM was 71%. For the same molecule, in series [2], the concentration for half-maximal inhibition (IC50) amounted to 8.7 ± 0.2 µM. In addition, in series [3], testing at 50 µM gave an inhibition of 89%.

Regarding `NC(=O)c1cncc(/C=C/c2ccc(F)cc2)c1` [Compound 2c, (E)-5-(4-Fluorostyryl)nicotinamide], the inhibition at 100 µM in series [1] (@ 100 µM, percent inhibition relative to controls) came to 51%. For the same molecule, the IC50 was ~7 µM and 6.6 µM in series [2]; 7.5 ± 0.9 µM in series [3].

As to `COc1ccc(/C=C/c2cncc(C(N)=O)c2)cc1` [Compound 2d], the inhibition at 10 µM turned out to be 51% in series [1] (setting [5]) and 64% in series [2]. Moreover, in series [3], testing at 50 µM gave an inhibition of 90%.

As for `NC(=O)c1cncc(/C=C/c2cccc(OCc3ccccc3)c2)c1` [Compound 2e], the values for the inhibition at 50 µM in series [1] (setting [5]), in series [2] and in series [3] were 61%, 69% and 60%, respectively.

Take `COc1cc(C)c(/C=C/c2cncc(C(N)=O)c2)c(C)c1` [Compound 2f]: the “relative percentage of (Z)-isomer in photostationary state” value in series [4] turned out to be 57%. Besides, the inhibition at 10 µM in series [1] (setting [5]) was 26%; in series [2], 21%. Besides, in series [3], 50 µM produced 79% inhibition.

Turning to `NC(=O)c1cncc(/C=C/c2ccc3c(c2)OCO3)c1` [Compound 2g], the inhibition at 50 µM in series [1] (setting [5]) worked out at 52%; in series [2], 62%; in series [3], 87%.

As for `NC(=O)c1cncc(/C=C/c2cccc(NC(=O)c3ccc(OCc4ccccc4)cc3)c2)c1` [Compound 2h], in series [1], the Sirt1 inhibition entry is on record as “n.i”. For the same molecule, at 10 µM the inhibition in series [2] was 9%. Moreover, the Sirt3 inhibition entry in series [3] is on record as “n.i”.

On to `NC(=O)c1cncc(C2=Cc3ccccc3CC2)c1` [Compound 4a], for which the Sirt1 inhibition result in series [1] was “complete loss of activity and n.i”. The inhibition at 10 µM in series [2] came to 48%; in series [3], 38%.

Consider `NC(=O)c1cncc(-c2ccc3ccccc3c2)c1` [Compound 4b], for which, in series [1], the Sirt1 inhibition entry was “complete loss of activity and n.i”. The inhibition at 10 µM in series [2] came to 45%; in series [3] it was 38%.

For the molecule `NC(=O)c1cnc2c(ccc3ccccc32)c1` [Compound 8a], the melting point was found to be 276.8 °C. Also, in series [1], the Sirt1 inhibition result was “complete inactivity and n.i”. Further, the Sirt2 inhibition entry in series [2] (n.i. = no inhibition detected, tested at 100 µM, 50 µM and 10 µM) is “complete inactivity and n.i”. For the same molecule, the Sirt3 inhibition result in series [3] was “complete inactivity and n.i”.
